The test system of this test is Plasmodium berghei. Put plainly: Luciferase/luciferin-expressing antifolate-resistant parasites were used to infect a culture of HepG2 cells that were pre-incubated with compounds. Infected hepatocytes emit light due to the luciferase reaction. Assay results are presented as the percent inhibition of light emission compared to control. […]. The note with it: sporozoite; for IC90: read-out: LUCIFERASE INFECTION ASSAY - IC90. It counts as functional.

The mark [1] stands for this setting: read-out: LUCIFERASE INFECTION ASSAY - IC50.

Structures are written as SMILES.

As to `COc1ccc(C(=O)NNC(=O)c2nn(-c3ccccc3)cc2O)c(OC)c1OC`, the IC90 came out at 2.77 µM. The IC50 (HEPG2TOX_HILL_SLOPE 0.737, HEPG2TOX_R_SQUARED 0.981, PBLUC_HILL_SLOPE 4.06, PBLUC_R_SQUARED 0.568, read-out: LUCIFERASE INFECTION ASSAY - IC50) is 1.61 µM.
As to `Cc1ccsc1CN(C)Cc1nnc(C(=O)Nc2ccc(Cl)cc2)s1`, the IC90 was over 10 µM. Also, under setting [1], the IC50 was over 10 µM.
With `Cc1ccc2nc(NC(=O)c3ccc(F)c(F)c3)c(C(=O)NC3CCCC3)n2c1`, the IC90 is 1.33 µM. Moreover, the half-inhibitory concentration (IC50) (FFLUC_HILL_SLOPE 15.6, FFLUC_R_SQUARED 0.751, HEPG2TOX_HILL_SLOPE 0.983, HEPG2TOX_R_SQUARED 0.896, PBLUC_HILL_SLOPE 4.3, PBLUC_R_SQUARED 0.744, read-out: LUCIFERASE INFECTION ASSAY - IC50) amounted to 0.8 µM.
On to `C[C@]12CC[C@H](O)C[C@H]1CCC1C2CC[C@]2(C)[C@@H](C3=CC(=O)OC3)CC[C@]12O` (some centres undefined), for which the IC90 was 0.225 µM. Under “HEPG2TOX_HILL_SLOPE 2.19, HEPG2TOX_R_SQUARED 0.915, PBLUC_HILL_SLOPE 1.64, PBLUC_R_SQUARED 0.798, read-out: LUCIFERASE INFECTION ASSAY - IC50”, the IC50 amounted to 0.0591 µM.
Take `CNC(=O)c1nn(CCc2ccccc2)c2c1CC(NCCC(C)C)CC2` (centres undefined): the IC90 was over 8.95 µM. The half-inhibitory concentration (IC50) under setting [1] was over 8.95 µM.
`NC(=O)C1CCN(c2nc(/C=C/c3ccccc3)nc3sc4c(c23)CCCC4)CC1`: the IC90 was over 10 µM. For the same molecule, the IC50 (FFLUC_HILL_SLOPE 8.41, FFLUC_R_SQUARED 0.401, PBLUC_HILL_SLOPE 20.5, PBLUC_R_SQUARED 0.298, read-out: LUCIFERASE INFECTION ASSAY - IC50) stood at 9.42 µM.
With `Cc1ccccc1C(Sc1nnc(-c2ccc[nH]2)o1)c1ccccc1` (centres undefined), the IC90 was over 10 µM. In addition, for the setting “HEPG2TOX_HILL_SLOPE 0.627, HEPG2TOX_R_SQUARED 0.488, read-out: LUCIFERASE INFECTION ASSAY - IC50”, the IC50 was over 10 µM.
With `CC1CC(=O)N(CC(=O)Nc2ccc(C(F)(F)F)cc2)N=C1c1ccc(Cl)cc1` (centres undefined), the IC90 is over 10 µM. Further, the IC50 (FFLUC_HILL_SLOPE 1.68, FFLUC_R_SQUARED 0.0802, HEPG2TOX_HILL_SLOPE 1.48, HEPG2TOX_R_SQUARED 0.946, read-out: LUCIFERASE INFECTION ASSAY - IC50) is over 10 µM.
`CCCCNC(=O)CN1CCN(C(=O)Cc2c(C)nc3ccccc3c2C)CC1`: the 90% effect concentration (IC90) was over 10 µM. Under setting [1], the IC50 is over 10 µM.
`O=C1NC(=O)/C(=C\c2ccc(Cl)c(Cl)c2)N1`: the 90% effect concentration (IC90) was found to be 5.37 µM. Also, where the note is “HEPG2TOX_HILL_SLOPE 1.44, HEPG2TOX_R_SQUARED 0.948, PBLUC_HILL_SLOPE 2.09, PBLUC_R_SQUARED 0.686, read-out: LUCIFERASE INFECTION ASSAY - IC50”, the IC50 was determined as 1.87 µM.
With `COc1ccc(Cl)cc1NC(=O)CCN1CCN(c2ncc(C(F)(F)F)cc2Cl)CC1`, the IC90 came out at 9.88 µM. The IC50 under setting [1] is 4.95 µM.
Consider `Cc1ccc(-n2ncc(Cl)c(Cl)c2=O)cc1`, for which the IC90 was over 12.9 µM. In addition, where the note is “FFLUC_HILL_SLOPE 14.5, FFLUC_R_SQUARED 0.489, HEPG2TOX_HILL_SLOPE 2.71, HEPG2TOX_R_SQUARED 0.789, PBLUC_HILL_SLOPE 3.3, PBLUC_R_SQUARED 0.431, read-out: LUCIFERASE INFECTION ASSAY - IC50”, the IC50 stood at 8.02 µM.
For the molecule `CNc1nc2cnc(-c3cncc(OC)c3)cc2n1Cc1ccc(OC)c(OC)c1`, the IC90 is over 10 µM. Further, under “PBLUC_HILL_SLOPE 6.98, PBLUC_R_SQUARED 0.0782, read-out: LUCIFERASE INFECTION ASSAY - IC50”, the IC50 came out at 8.17 µM.
Consider `COc1cc(NC(=O)c2csc(C(O)c3cccc(C(F)(F)F)c3)n2)cc(OC)c1OC` (centres undefined), for which the IC90 was over 10 µM. Besides, the IC50 under setting [1] was over 10 µM.
With `Cc1nnc(Oc2ccc(C#N)cc2Cl)c2ccccc12`, the IC90 was over 10 µM. Where the note is “HEPG2TOX_HILL_SLOPE 10.4, HEPG2TOX_R_SQUARED 0.426, read-out: LUCIFERASE INFECTION ASSAY - IC50”, the IC50 is over 10 µM.
In the case of `CN(Cc1ccccc1N1CCOCC1)C(=O)/C=C/c1c(Cl)nc2ccccn12`, the IC90 was over 10 µM. Moreover, the IC50 under setting [1] was over 10 µM.
Take `Cc1cc(-c2csc(NC(=O)CCc3nc4ccccc4[nH]3)n2)c(C)s1`: the IC90 was over 10 µM. Besides, the IC50 (PBLUC_HILL_SLOPE 3, PBLUC_R_SQUARED 0.654, read-out: LUCIFERASE INFECTION ASSAY - IC50) turned out to be 6.46 µM.
Consider `Cc1cc(-c2cc(C(=O)NCc3ccc(Cn4cncn4)cc3)c3cnn(C(C)C)c3n2)c(C)s1`, for which the IC90 is over 10 µM. Besides, the IC50 under setting [1] is over 10 µM.
With `CC(C)c1ccc(-c2ccc3nnc(-c4ccc5nccnc5c4)n3c2)cc1`, the IC90 was over 10 µM. Besides, the IC50 under setting [1] is over 10 µM.
Consider `O=C(Nc1nc2ccccn2c1C(=O)NC1CCCC1)c1ccccc1`, for which the IC90 was determined as 7.5 µM. Also, the IC50 (HEPG2TOX_HILL_SLOPE 3.22, HEPG2TOX_R_SQUARED 0.898, PBLUC_HILL_SLOPE 4.41, PBLUC_R_SQUARED 0.561, read-out: LUCIFERASE INFECTION ASSAY - IC50) was determined as 4.56 µM.
On to `CC1CCN(S(=O)(=O)c2ccc(C(=O)Nc3ncccc3O)cc2)CC1`, for which the IC90 is over 10 µM. For the setting “PBLUC_HILL_SLOPE 2.15, PBLUC_R_SQUARED 0.503, read-out: LUCIFERASE INFECTION ASSAY - IC50”, the IC50 is 4.81 µM.
As to `CNC(=O)Cc1ccc(NC(=O)CCSC)cc1`, the IC90 is over 10 µM. For the same molecule, the IC50 under setting [1] is over 10 µM.
Take `CCN(CC)S(=O)(=O)c1cccc(NC(=O)c2sc(Nc3ccc(C)cc3C)c(C(=O)NC(C)COC)c2N)c1` (centres undefined): the IC90 was over 10 µM. Also, where the note is “FFLUC_HILL_SLOPE 0.973, FFLUC_R_SQUARED 0.376, read-out: LUCIFERASE INFECTION ASSAY - IC50”, the IC50 was over 10 µM.
In the case of `O=C(OCc1csc(-c2ccccc2)n1)c1cc(O)c2ccccc2c1O`, the IC90 is over 10 µM. The IC50 (FFLUC_HILL_SLOPE 21.7, FFLUC_R_SQUARED 0.124, read-out: LUCIFERASE INFECTION ASSAY - IC50) was over 10 µM.
On to `Cn1c(Nc2ccccc2)nc2cnc(-c3ccc(N4CCOCC4)cc3)cc21`, for which the IC90 was over 10 µM. Moreover, the IC50 under setting [1] amounted to 9.31 µM.
As for `Clc1ccccc1-c1cnc2sc(NCc3cccs3)nn12`, the IC90 is over 9.51 µM. Moreover, the IC50 (FFLUC_HILL_SLOPE 0.509, FFLUC_R_SQUARED 0.232, read-out: LUCIFERASE INFECTION ASSAY - IC50) was over 9.51 µM.
Regarding `COc1ccc(-c2cnc3cnc(-c4cccnc4)cn23)cc1`, the IC90 came out at 4.75 µM. Moreover, the IC50 (PBLUC_HILL_SLOPE 2.13, PBLUC_R_SQUARED 0.733, read-out: LUCIFERASE INFECTION ASSAY - IC50) amounted to 1.7 µM.
`CCCS(=O)(=O)c1cnc(C2COc3ccccc3O2)nc1N` (centres undefined): the IC90 came to 1.07 µM. In addition, where the note is “FFLUC_HILL_SLOPE 3.81, FFLUC_R_SQUARED 0.729, PBLUC_HILL_SLOPE 0.615, PBLUC_R_SQUARED 0.774, read-out: LUCIFERASE INFECTION ASSAY - IC50”, the IC50 stood at 0.0301 µM.
With `Cn1c(Nc2ccccc2)nc2cnc(-c3ccc(Cl)cc3)cc21`, the IC90 was over 10 µM. In addition, the IC50 (PBLUC_HILL_SLOPE 23.8, PBLUC_R_SQUARED 0.319, read-out: LUCIFERASE INFECTION ASSAY - IC50) was determined as 9.73 µM.
As for `C/N=c1\scc(-c2ccco2)n1/N=C/c1sccc1C`, the IC90 came to 1.19 µM. Besides, the IC50 (FFLUC_HILL_SLOPE 0.471, FFLUC_R_SQUARED 0.601, PBLUC_HILL_SLOPE 1.29, PBLUC_R_SQUARED 0.771, read-out: LUCIFERASE INFECTION ASSAY - IC50) came out at 0.216 µM.
Consider `COCCNC(=O)C1CCN(C(C(=O)c2c[nH]c3ccccc23)c2ccccc2)CC1` (centres undefined), for which the IC90 came out at 4.42 µM. For the setting “PBLUC_HILL_SLOPE 1.13, PBLUC_R_SQUARED 0.77, read-out: LUCIFERASE INFECTION ASSAY - IC50”, the IC50 stood at 0.636 µM.
Consider `CCCN(CCC)c1ccc(C(C2C(=O)CC(C)(C)CC2=O)C2C(=O)CC(C)(C)CC2=O)cc1`, for which the IC90 was over 10 µM. In addition, the IC50 (FFLUC_HILL_SLOPE 2.34, FFLUC_R_SQUARED 0.0441, PBLUC_HILL_SLOPE 3.18, PBLUC_R_SQUARED 0.551, read-out: LUCIFERASE INFECTION ASSAY - IC50) turned out to be 5.61 µM.
On to `COC(=O)c1occc1/C=C/C(=O)c1ccc(OCc2ccccc2)cc1`, for which the IC90 is over 10 µM. In addition, the IC50 under setting [1] was over 10 µM.
As to `O=C1c2ccccc2O[C@@H](c2ccc([N+](=O)[O-])cc2)[C@@H]1O`, the IC90 was over 11.6 µM. Moreover, the IC50 (PBLUC_HILL_SLOPE 15.1, PBLUC_R_SQUARED 0.277, read-out: LUCIFERASE INFECTION ASSAY - IC50) is 10.8 µM.
Consider `Cc1cc2cc(Nc3ccc(S(=O)(=O)NC(C)(C)C)cc3[N+](=O)[O-])ccc2[nH]1`, for which the IC90 is over 10 µM. In addition, the IC50 (HEPG2TOX_HILL_SLOPE 6.66, HEPG2TOX_R_SQUARED 0.674, PBLUC_HILL_SLOPE 2.21, PBLUC_R_SQUARED 0.655, read-out: LUCIFERASE INFECTION ASSAY - IC50) came out at 4.89 µM.
In the case of `CN(Cc1cc(=O)n2c([nH]c3ccccc32)c1C#N)Cc1c(F)cccc1Cl`, the IC90 is 6.11 µM. Also, where the note is “HEPG2TOX_HILL_SLOPE 0.22, HEPG2TOX_R_SQUARED 0.757, PBLUC_HILL_SLOPE 1.9, PBLUC_R_SQUARED 0.518, read-out: LUCIFERASE INFECTION ASSAY - IC50”, the IC50 was 1.92 µM.
For `Cc1cc(-c2ccccc2)c(-c2nc3ccccc3[nH]2)[nH]1`, the IC90 is 1.38 µM. In addition, the IC50 (HEPG2TOX_HILL_SLOPE 8.44, HEPG2TOX_R_SQUARED 0.516, PBLUC_HILL_SLOPE 11.1, PBLUC_R_SQUARED 0.785, read-out: LUCIFERASE INFECTION ASSAY - IC50) is 1.13 µM.

The IC50 is the concentration that inhibits the measured activity by half. In general, IC90 refers to the concentration at which the effect reaches the 90% level.
